Marks after values point to notes of the source that are not given here.
Biological target: T1, Microsomal ATP13A2 (Homo sapiens, UniProt Q9NQ11)
T1 construct: expressed in transfected cells; host or cells: SH-SY5Y human neuroblastoma cells, lentiviral transduction; microsomes solubilised with DDM
T1 sequence (Q9NQ11 1-1175 isoform Q9NQ11-3): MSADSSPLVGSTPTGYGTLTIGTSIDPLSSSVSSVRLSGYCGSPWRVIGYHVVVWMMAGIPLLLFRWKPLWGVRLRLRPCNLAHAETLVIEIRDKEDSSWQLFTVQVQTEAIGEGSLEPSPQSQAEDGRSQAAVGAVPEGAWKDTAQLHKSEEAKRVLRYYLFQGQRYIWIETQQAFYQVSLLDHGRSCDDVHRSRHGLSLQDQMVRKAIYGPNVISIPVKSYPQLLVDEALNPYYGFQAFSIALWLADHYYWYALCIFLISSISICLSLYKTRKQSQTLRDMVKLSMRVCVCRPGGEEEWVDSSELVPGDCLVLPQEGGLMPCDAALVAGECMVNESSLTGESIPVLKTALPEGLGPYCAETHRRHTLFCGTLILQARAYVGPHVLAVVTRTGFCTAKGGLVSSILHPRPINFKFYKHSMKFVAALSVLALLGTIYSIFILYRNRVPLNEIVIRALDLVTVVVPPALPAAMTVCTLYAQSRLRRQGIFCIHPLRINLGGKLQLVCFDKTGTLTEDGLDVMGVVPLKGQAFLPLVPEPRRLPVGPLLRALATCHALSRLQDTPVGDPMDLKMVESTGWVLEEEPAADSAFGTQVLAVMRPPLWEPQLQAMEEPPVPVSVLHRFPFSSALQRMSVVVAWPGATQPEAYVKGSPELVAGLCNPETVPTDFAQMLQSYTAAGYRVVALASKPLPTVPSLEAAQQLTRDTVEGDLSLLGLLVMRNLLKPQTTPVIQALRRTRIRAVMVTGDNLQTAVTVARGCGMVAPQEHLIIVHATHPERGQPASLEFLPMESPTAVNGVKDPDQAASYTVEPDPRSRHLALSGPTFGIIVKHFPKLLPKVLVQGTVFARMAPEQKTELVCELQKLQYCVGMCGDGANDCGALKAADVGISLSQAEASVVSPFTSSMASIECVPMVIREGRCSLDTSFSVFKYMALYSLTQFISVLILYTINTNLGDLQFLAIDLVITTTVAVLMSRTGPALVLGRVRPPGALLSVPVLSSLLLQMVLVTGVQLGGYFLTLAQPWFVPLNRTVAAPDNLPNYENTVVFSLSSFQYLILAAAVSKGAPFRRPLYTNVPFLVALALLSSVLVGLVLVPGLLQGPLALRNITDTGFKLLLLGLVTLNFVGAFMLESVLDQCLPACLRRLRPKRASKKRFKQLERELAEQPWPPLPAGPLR
Test: ATPase assay (ADP-Glo Max), solubilized microsomes of SH-SY5Y cells overexpressing ATP13A2 WT
Type: biochemical
Details: for ATPase activity of ATP13A2 WT, screen for candidate substrates: 100 nM CaCl2, MnCl2, ZnCl2 or FeCl3, 100 µM SPD or SPM; for Vmax ± SEM: Microsomal ATP13A2; for ATPase activity of ATP13A2, dose-response: indicated doses, microsomes 5 µg
Method: Membrane fractionation - Transduced SH-SY5Y cells were seeded in […] at a density of 6 x 10^6 cells per plate. 24 h later, the cells were harvested following trypsinization and brief centrifugation (300 x g, 5 min). Subcellular fractionation was performed by differential centrifugation. The microsomal protein concentration was measured using the bicinchoninic acid assay (Thermo Fischer Scientific, Pierce) according to the manufacturer's instructions.
ATPase assay - The ATPase activity of ATP13A2 was assessed using a commercially available luminescence assay (ADP-Glo Max assay, Promega) that monitors the production of ADP via luciferase activity. The reactions were performed for 30 min (37°C) in a final volume of 25 µl. […] The assay was started by the addition of 5 mM ATP and was terminated by adding 25 µl of ADP-Glo Reagent. The 96-well plate was then incubated for 40 min at room temperature, followed by the addition of 50 µl of ADP-Glo Max Detection Reagent. After 40 min, luminescence was detected using a FlexStation 3.0 system (Molecular Devices). Dose-response curves and n/Km/Vmax values were calculated using GraphPad Prism Software (GraphPad Software Inc.).

| SMILES | ATPase activity of ATP13A2 WT, screen for candidate substrates | Vmax ± SEM | ATPase activity of ATP13A2, dose-response | Hill coefficient of SPM-induced ATPase activity (microsomal ATP13A2 WT) |
| --- | --- | --- | --- | --- |
| NCCCCNCCCN [Spermidine, spermidine] | significantly stimulated ATPase activity | ∼ 106* nmol ADP/mg/min | stimulate ATPase activity in a concentration-dependent manner |  |
| NCCCNCCCCNCCCN [Spermine, spermine] | significantly stimulated ATPase activity | 140 ± 6 nmol ADP/mg/min | stimulate ATPase activity in a concentration-dependent manner | approaches one |

From EP3839043A1, “SCREENING METHODS FOR COMPOUNDS MODULATING POLYAMINE TRANSPORT” (Katholieke Universiteit Leuven, priority 2019, dated 2021)
